Measurements from ChEMBL document CHEMBL2074382, “Improvement of L-dopa absorption by dipeptidyl derivation, utilizing peptide transporter PepT1” (J Pharm Sci, 1998).
Non-standard residues stand in square brackets, D forms with d. Residues, ends and D or L forms follow the SMILES beside them. Dopa = N[C@@H](Cc1ccc(O)c(O)c1)C(=O)O

How the values were obtained:
[1] = target: T1, Solute carrier family 15 member 1 (Homo sapiens) (UniProt P46059); assay: TP_TRANSPORTER: uptake in Xenopus laevis oocytes; assay type: functional, cell-based; conditions: Oocyte
T1 sequence (whole entry): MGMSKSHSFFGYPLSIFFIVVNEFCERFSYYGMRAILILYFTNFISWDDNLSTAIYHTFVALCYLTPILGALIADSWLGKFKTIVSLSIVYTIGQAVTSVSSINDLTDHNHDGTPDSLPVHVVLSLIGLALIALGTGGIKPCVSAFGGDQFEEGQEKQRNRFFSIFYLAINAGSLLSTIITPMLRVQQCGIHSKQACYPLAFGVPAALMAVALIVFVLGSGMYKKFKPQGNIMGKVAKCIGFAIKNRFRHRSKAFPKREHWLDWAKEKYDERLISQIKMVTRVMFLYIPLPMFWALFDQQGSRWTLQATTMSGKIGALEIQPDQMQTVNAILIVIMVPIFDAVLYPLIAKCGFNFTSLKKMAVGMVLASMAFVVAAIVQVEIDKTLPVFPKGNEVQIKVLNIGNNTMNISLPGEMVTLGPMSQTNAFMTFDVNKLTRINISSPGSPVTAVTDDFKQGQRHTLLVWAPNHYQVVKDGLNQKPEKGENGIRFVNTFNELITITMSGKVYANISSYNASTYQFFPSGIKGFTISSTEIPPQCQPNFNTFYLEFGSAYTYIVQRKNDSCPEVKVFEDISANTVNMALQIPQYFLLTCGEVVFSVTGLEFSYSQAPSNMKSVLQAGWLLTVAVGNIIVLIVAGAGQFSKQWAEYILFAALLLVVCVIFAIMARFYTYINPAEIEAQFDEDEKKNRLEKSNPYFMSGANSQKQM

[2] = target: T1, Solute carrier family 15 member 1 (Homo sapiens); assay: TP_TRANSPORTER: inhibition of Gly-Sar uptake (Gly-Sar: 20 uM, L-dopa-L-Phe: 1000 uM) in Caco-2 cells; assay type: functional, cell-based

| Compound | Activity [1] | Activity [2] |
| --- | --- | --- |
| N[C@@H](Cc1ccc(O)c(O)c1)C(=O)N[C@@H](Cc1ccccc1)C(=O)O (H-[Dopa]-Phe-OH) | substrate [+] | inhibitor [20% (at a rough estimate) of control] |
| N[C@@H](Cc1ccccc1)C(=O)N1CCC[C@@H]1C(=O)O | substrate [+] | – |
| NC(=O)[C@H](Cc1ccccc1)NC(=O)[C@@H](N)Cc1ccccc1 (H-Phe-Phe-NH2) | substrate [+] | – |
| N[C@@H](Cc1ccccc1)C(=O)N1CCC[C@H]1C(=O)O | substrate [+] | – |
